Entries after “also recorded” stand apart in the source; their conditions may differ.
Experiments:
Male ICR mice [1] = experiment: Hypothermia, rectal temperature; assay type: in vivo; conditions: SR 141716A 10 mg/kg i.p. 5 min before 60 actuations of Δ^9-THC MDI
Method: (§1) Male ICR mice, weighing approximately 30 g, obtained from Harlan Laboratories (Indianapolis, Ind.) were provided a light cycle of approximately 6 a.m. to 6 p.m., and the temperature remained approximately 23° C. The mice were placed in the lab and allowed to accommodate to the surroundings the evening prior to testing. Animals were allowed food (Harlan Teklab, Madison, Wis.) and water ad libitum.
(§2) The exposure chamber was a modified, inverted, 1-liter separation funnel, housed under a fume hood, which allowed four mice to be simultaneously exposed to the aerosol. […]
(§3) A ring-test procedure was used to assess catalepsy. The percent of time during a five minute observation period that mice remained motionless, except for movements related to respiration, while stationed on a 5.7 cm diameter ring stand 23 cm above the laboratory bench, was assessed. Body temperature was assessed by inserting a thermometer probe (Traceable Digital, Control Co., Friendswood, Tex.) 2.5 cm into the rectum. Subjects were assessed for baseline tail-flick latency and rectal temperature prior to drug or vehicle administration. […] Locomotor activity, tail-flick latency, catalepsy, and hypothermia were assessed 5, 20, 40, and 60 minutes, respectively, after aerosol exposure. […]

Male ICR mice [2] = experiment: Locomotor activity (hypomotility), Digiscan Animal Activity Monitor; assay type: in vivo; conditions: SR 141716A 10 mg/kg i.p. 5 min before 60 actuations of Δ^9-THC MDI
Method: Mice were placed in separate clear chambers (16.5 cm×25.5 cm×11.5 cm high) and assessed for hypomotility using a Digiscan Animal Activity Monitor (Omnitech Electronics Inc., Columbus, Ohio) in which the total number of photocell-light beam interruptions was counted. Antinociception was assessed in the tail-flick test (D'Amour, F. E., Smith, D. L., A method for determining loss of pain sensation, J Pharm Exp Ther, 72:74-79 (1941)) with heat intensity adjusted to give baseline latencies ranging from 2.0-4.0 seconds. […] Percent maximum possible effect (%MPE) was determined according to the following formula:
A ring-test procedure was used to assess catalepsy. […] Body temperature was assessed by inserting a thermometer probe (Traceable Digital, Control Co., Friendswood, Tex.) 2.5 cm into the rectum. […]

Male ICR mice [3] = experiment: Antinociception, tail-flick test; assay type: in vivo
Method: as §1
The exposure chamber was a modified, inverted, 1-liter separation funnel, housed under a fume hood, which allowed four mice to be simultaneously exposed to the aerosol. Air was drawn through the chamber at a rate of approximately 60 ml/minute and filtered through glass wool (Corning Inc., Corning, N.Y.) and charcoal traps (SKC Inc., Eighty Four, Pa.) upon exiting the exposure chamber. Each actuation of Δ^9-THC or vehicle was delivered once per 5 s and the entire exposure period was 10 min. Mice were exposed to 20, 40 or 60 actuations of aerosolized Δ^9-THC or 60 actuations of vehicle.
Mice were placed in separate clear chambers (16.5 cm×25.5 cm×11.5 cm high) and assessed for hypomotility using a Digiscan Animal Activity Monitor (Omnitech Electronics Inc., Columbus, Ohio) in which the total number of photocell-light beam interruptions was counted. Antinociception was assessed in the tail-flick test (D'Amour, F. E., Smith, D. L., A method for determining loss of pain sensation, J Pharm Exp Ther, 72:74-79 (1941)) with heat intensity adjusted to give baseline latencies ranging from 2.0-4.0 seconds. A cut-off time of 10 seconds was used to limit tissue damage. Percent maximum possible effect (%MPE) was determined according to the following formula:
%MPE=[(test latency-baseline latency)/(cut-off-baseline latency)]*100
A ring-test procedure was used to assess catalepsy. The percent of time during a five minute observation period that mice remained motionless, except for movements related to respiration, while stationed on a 5.7 cm diameter ring stand 23 cm above the laboratory bench, was assessed. Body temperature was assessed by inserting a thermometer probe (Traceable Digital, Control Co., Friendswood, Tex.) 2.5 cm into the rectum. Subjects were assessed for baseline tail-flick latency and rectal temperature prior to drug or vehicle administration. […] Locomotor activity, tail-flick latency, catalepsy, and hypothermia were assessed 5, 20, 40, and 60 minutes, respectively, after aerosol exposure. An additional group of animals was given an i.v. injection of Δ^9-THC (0.3, 1, 3, or 10 mg/kg) or vehicle into a lateral tail vein and assessed in the tail-flick test 20 minutes later. All injections were given in a volume of 0.1 ml per 10 g animal weight.
The statistical analysis of the data was as follows. Data are represented by means±standard error (s.e.). Statistical analysis of the data was performed using Student t-tests (for the physiochemical comparisons of the aerosol), or ANOVA (for pharmacological studies), with significance set at p<0.05. Post hoc tests for significant ANOVAs included either Dunnett's test or Tukey/Kramer post-hoc analysis. […] A sample size of 6-8 mice was used in each group.

mice = conditions: cited from earlier work
Male ICR mice [4] = experiment: Catalepsy, ring-test (ring immobility); assay type: in vivo; conditions: SR 141716A 10 mg/kg i.p. 5 min before 60 actuations of Δ^9-THC MDI
Method: as §1, §2, §3

[5] = test system: Nausea and emesis due to Cancer chemotherapy; conditions: oral 15 mg THC, 10 mg prochloperzine or placebo; 116 patients; cited from earlier work
[6] = test system: Spasticity and pain due to spinal cord injury; conditions: oral THC (5 mg) or codeine (50 mg); 1 patient; cited from earlier work

With `Cc1c(C(=O)NN2CCCCC2)nn(-c2ccc(Cl)cc2Cl)c1-c1ccc(Cl)cc1` [SR 141716A] the “antagonism of Δ^9-THC-induced hypothermia” value (Male ICR mice [1]) was “significantly blocked; also recorded: not completely antagonized; also recorded: significantly antagonized”, the “antagonism of Δ^9-THC-induced hypomotility” value (Male ICR mice [2]) was “significantly blocked; also recorded: significantly antagonized” and the “antagonism of Δ^9-THC-induced antinociception” value (Male ICR mice [3]; SR 141716A 10 mg/kg i.p. 5 min before 60 actuations of Δ^9-THC MDI) was “significantly blocked; also recorded: significantly antagonized”. The “AD50 (95% C.L.) in antagonizing the antinociceptive effects of inhaled Δ^9-THC” value (Male ICR mice [3]; i.p. pretreatment, exposure to Δ^9-THC) was 0.8 mg/kg, the “ED50 in antagonizing antinociceptive effects” value (mice; exposure to marijuana smoke (Lichtman et al., 2001)) was 0.6 mg/kg and the “antagonism of effects of marijuana smoke” value (mice; mice exposed to marijuana smoke (Lichtman et al., 2001)) was “only effectively antagonized the antinociceptive response”. For the same compound, the “antagonism of Δ^9-THC-induced catalepsy” value (Male ICR mice [4]) was “significantly blocked; also recorded: significantly antagonized”.

In the case of `CN1CCN(CCCN2c3ccccc3Sc3ccc(Cl)cc32)CC1` [prochlorperazine], the “antiemetic effect compared with placebo” value [5] is listed as “each greater than placebo;” and the “antiemetic effects, THC vs prochlorperazine” value [5] is listed as “Equal antiemetic effects”.

In the case of `COc1ccc2c3c1O[C@H]1[C@@H](O)C=C[C@H]4[C@@H](C2)N(C)CC[C@@]341` [codeine], the effect on spasticity [6] is listed as “codeine did not”.
